The source made the active and inactive calls. The calls are words filed in the database; no cut-off is given here.
How the values were obtained:
SOX2 promoter DNA [1] = test: Binding affinity to SOX2 promoter 5'-CTTTGTT-3' DNA in human ES2 cells assessed as reduction in SOX2 mRNA expression incubated for 48 hrs by qRT-PCR analysis; assay type: cell-based
SOX2 promoter DNA [2] = test: Binding affinity to SOX2 promoter 5'-CTTTGTT-3' DNA in human SW620 cells assessed as reduction in SOX2 protein level by measuring SOX2 level at 5 uM incubated for 48 hrs by immunostaining based FACS analysis (reference value: 55.9%); assay type: cell-based; design: scale not given: the % may be the effect or the level left; conditions: SW-620
SOX2 promoter DNA [3] = test: Binding affinity to SOX2 promoter 5'-CTTTGTT-3' DNA in human PC3 cells assessed as reduction in SOX2 mRNA expression incubated for 48 hrs by qRT-PCR analysis; assay type: cell-based; conditions: PC-3
U2OS [4] = test: Cell cycle arrest in human U2OS cells assessed as reduction in accumulation at S phase at 2 uM to 5 uM after 48 hrs by propidium iodide staining based flow cytometry analysis; assay type: functional
SW-620 [5] = test: Antimigratory activity in human SW620 cells assessed as reduction in cell migration at 5 uM incubated for 24 hrs by Calcein AM staining based fluorescence microscopic analysis relative to untreated control; assay type: functional
SW-620 [6] = test: Cell cycle arrest in human SW620 cells assessed as increase in accumulation at sub-G1/G1 phase at 2 uM to 5 uM after 48 hrs by propidium iodide staining based flow cytometry analysis; assay type: functional
SW-620 [7] = test: Cell cycle arrest in human SW620 cells assessed as reduction in accumulation at S phase at 2 uM to 5 uM after 48 hrs by propidium iodide staining based flow cytometry analysis; assay type: functional
SOX2 promoter DNA [8] = test: Binding affinity to SOX2 promoter 5'-CTTTGTT-3' DNA in human MKN45 cells assessed as reduction in SOX2 protein level incubated for 48 hrs by immunostaining based FACS analysis; assay type: cell-based; conditions: MKN-45
SOX2 promoter DNA [9] = test: Binding affinity to SOX2 promoter 5'-CTTTGTT-3' DNA in human SW620 cells assessed as down regulation of Cyclin D1 gene expression at 2 uM incubated for 48 hrs by Cy3-labelled cRNA-based microarray analysis; assay type: cell-based; conditions: SW-620
SOX2 promoter DNA [10] = test: Binding affinity to SOX2 promoter 5'-CTTTGTT-3' DNA in human SW620 cells assessed as down regulation of POU5F1 gene expression at 2 uM incubated for 48 hrs by Cy3-labelled cRNA-based microarray analysis; assay type: cell-based; conditions: SW-620
SOX2 promoter DNA [11] = test: Binding affinity to SOX2 promoter 5'-CTTTGTT-3' DNA in human SW620 cells assessed as reduction in SOX2 protein level incubated for 48 hrs by immunostaining based FACS analysis; assay type: cell-based; conditions: SW-620
SOX2 promoter DNA [12] = test: Binding affinity to SOX2 promoter 5'-CTTTGTT-3' DNA in mouse GL261 cells assessed as reduction in SOX2 mRNA expression incubated for 48 hrs by qRT-PCR analysis; assay type: cell-based
SOX2 promoter DNA [13] = test: Binding affinity to SOX2 promoter 5'-CTTTGTT-3' DNA in human SW620 cells assessed as down regulation of stemness associated KLF4 mRNA expression at 2 uM incubated for 48 hrs by qRT-PCR analysis; assay type: cell-based; conditions: SW-620
MCF7 [14] = test: Cell cycle arrest in human MCF7 cells assessed as reduction in accumulation at S phase at 2 uM to 5 uM after 48 hrs by propidium iodide staining based flow cytometry analysis; assay type: functional
SW-620 [15] = test: Up regulation of TP73 mRNA expression in human SW620 cells incubated for 48 hrs by qRT-PCR analysis; assay type: functional, cell-based
SOX2 promoter DNA [16] = test: Binding affinity to SOX2 promoter 5'-CTTTGTT-3' DNA in mouse EG7 cells assessed as reduction in SOX2 mRNA expression incubated for 48 hrs by qRT-PCR analysis; assay type: cell-based
MKN-45 [17] = test: Cell cycle arrest in human MKN45 cells assessed as increase in accumulation at sub-G1/G1 phase at 2 uM to 5 uM after 48 hrs by propidium iodide staining based flow cytometry analysis; assay type: functional
SW-620 [18] = test: Up regulation of caspase-3 mRNA expression in human SW620 cells incubated for 48 hrs by qRT-PCR analysis; assay type: functional, cell-based
SOX2 promoter DNA [19] = test: Binding affinity to SOX2 promoter 5'-CTTTGTT-3' DNA in human SW620 cells assessed as upregulation of GSK3-beta mRNA expression incubated for 48 hrs by qRT-PCR analysis; assay type: cell-based; conditions: SW-620
SOX2 promoter DNA [20] = test: Binding affinity to SOX2 promoter 5'-CTTTGTT-3' DNA in mouse B16 cells assessed as reduction in SOX2 mRNA expression incubated for 48 hrs by qRT-PCR analysis; assay type: cell-based
SOX2 promoter DNA [21] = test: Binding affinity to SOX2 promoter 5'-CTTTGTT-3' DNA in human SW620 cells assessed as down regulation of DOCK1 mRNA expression at 2 uM incubated for 48 hrs by qRT-PCR analysis; assay type: cell-based; conditions: SW-620
MCF7 [22] = test: Cell cycle arrest in human MCF7 cells assessed as reduction in accumulation at G2/M phase at 2 uM to 5 uM after 48 hrs by propidium iodide staining based flow cytometry analysis; assay type: functional
SOX2 promoter DNA [23] = test: Binding affinity to SOX2 promoter 5'-CTTTGTT-3' DNA in human SW620 cells assessed as down regulation of JAG1 mRNA expression at 2 uM incubated for 48 hrs by qRT-PCR analysis; assay type: cell-based; conditions: SW-620
SOX2 promoter DNA [24] = test: Binding affinity to SOX2 promoter 5'-CTTTGTT-3' DNA in human SW620 cells assessed as down regulation of VIM gene expression at 2 uM incubated for 48 hrs by Cy3-labelled cRNA-based microarray analysis; assay type: cell-based; conditions: SW-620
SOX2 promoter DNA [25] = test: Binding affinity to SOX2 promoter 5'-CTTTGTT-3' DNA in human MCF7 cells assessed as reduction in SOX2 protein level incubated for 48 hrs by immunostaining based FACS analysis; assay type: cell-based
MKN-45 [26] = test: Cytotoxicity against human MKN45 cells assessed as reduction in cell viability incubated for 48 hrs by MTT assay; assay type: functional, cell-based
SOX2 promoter DNA [27] = test: Binding affinity to SOX2 promoter 5'-CTTTGTT-3' DNA in human MKN45 cells assessed as reduction in SOX2 mRNA expression incubated for 48 hrs by qRT-PCR analysis; assay type: cell-based; conditions: MKN-45
SOX2 promoter DNA [28] = test: Binding affinity to SOX2 promoter 5'-CTTTGTT-3' DNA in mouse Wehi3 cells assessed as reduction in SOX2 mRNA expression incubated for 48 hrs by qRT-PCR analysis; assay type: cell-based
SOX2 promoter DNA [29] = test: Binding affinity to SOX2 promoter 5'-CTTTGTT-3' DNA in human SW620 cells assessed as down regulation of ALDH1A1 gene expression at 2 uM incubated for 48 hrs by Cy3-labelled cRNA-based microarray analysis; assay type: cell-based; conditions: SW-620
U2OS [30] = test: Cytotoxicity against human U2OS cells assessed as reduction in cell viability incubated for 48 hrs by MTT assay; assay type: functional, cell-based
SW-620 [31] = test: Antiproliferative activity against human SW620 cells assessed as inhibition of cell proliferation incubated for 48 hrs by [3H]thymidine incorporation based scintillation counting method; assay type: functional
SOX2 promoter DNA [32] = test: Binding affinity to SOX2 promoter 5'-CTTTGTT-3' DNA in human SW620 cells assessed as downregulation SALL4 mRNA expression incubated for 48 hrs by qRT-PCR analysis; assay type: cell-based; conditions: SW-620
SOX2 promoter DNA [33] = test: Binding affinity to SOX2 promoter 5'-CTTTGTT-3' DNA in human SW620 cells assessed as down regulation of JAG1 gene expression at 2 uM incubated for 48 hrs by Cy3-labelled cRNA-based microarray analysis; assay type: cell-based; conditions: SW-620

`CC(=O)Nc1cc(C(=O)Nc2cc(C(=O)Nc3cc(C(=O)NCCC(=O)Nc4cn(C)c(C(=O)Nc5cc(C(=O)NCCCC(=O)Nc6cc(C(=O)Nc7cc(C(=O)NCCC(=O)Nc8cc(C(=O)Nc9cc(C(=O)Nc%10cn(C)c(C(=O)NCCCN(C)C)n%10)n(C)c9)n(C)c8)n(C)c7)n(C)c6)n(C)c5)n4)n(C)c3)n(C)c2)n(C)c1` was tested, and the Activity (SOX2 promoter DNA [1]) was “Active”, the Activity (SOX2 promoter DNA [2]) was 28.1% and the Activity (SOX2 promoter DNA [3]) was “Active”. For the same compound, the Activity (U2OS [4]) was “Active”, the “fold change (FC)” value (SW-620 [5]) was 5 and the Activity (SW-620 [6]) was “Active”. The Activity (SW-620 [7]) was “Active”, the Activity (SOX2 promoter DNA [8]) was “Dose-dependent effect” and the Activity (SOX2 promoter DNA [9]) was “Active”. For the same compound, the Activity (SOX2 promoter DNA [10]) was “Active”, the Activity (SOX2 promoter DNA [11]) was “Dose-dependent effect” and the Activity (SOX2 promoter DNA [12]) was “Active”. For the same compound, the Activity (SOX2 promoter DNA [13]) was “Active”, the Activity (MCF7 [14]) was “Active” and the Activity (SW-620 [15]) was “Active”. The Activity (SOX2 promoter DNA [16]) was “Active”, the Activity (MKN-45 [17]) was “Active” and the Activity (SW-620 [18]) was “Active”. For the same compound, the Activity (SOX2 promoter DNA [19]) was “Active”, the Activity (SOX2 promoter DNA [20]) was “Active” and the Activity (SOX2 promoter DNA [21]) was “Active”. The Activity (MCF7 [22]) was “Active”, the Activity (SOX2 promoter DNA [23]) was “Active” and the Activity (SOX2 promoter DNA [24]) was “Active”. For the same compound, the Activity (SOX2 promoter DNA [25]) was “Dose-dependent effect”, the Activity (MKN-45 [26]) was “Dose-dependent effect” and the Activity (SOX2 promoter DNA [27]) was “Active”. The Activity (SOX2 promoter DNA [28]) was “Active”, the Activity (SOX2 promoter DNA [29]) was “Active” and the Activity (U2OS [30]) was “Dose-dependent effect”. For the same compound, the inhibition (SW-620 [31]) was “Dose-dependent effect”, the Activity (SOX2 promoter DNA [32]) was “Active” and the Activity (SOX2 promoter DNA [33]) was “Active”.
